One assay has as its system JeKo-1 cells. As to the kind of experiment: Antiproliferative effect, MTS cell viability assay, JeKo-1 cells. Format: cell-based. The note with it: JeKo-1 mantle cell lymphoma cells, read-out: IC50 (anti-proliferation) JeKO-1 cells. The method in brief:
(§1)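 Tested at six concentrations (0 to 10 μM in tenfold steps), 72 h; viability by MTS, A490.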

A further assay deals with BTK (Homo sapiens, UniProt Q06187). As to the kind of experiment: Degradation of BTK protein in Namalwa cells (Western blot; DC50, Dmax). Particulars: for DC50: cell line not given.
Sequence of BTK (Q06187 whole entry): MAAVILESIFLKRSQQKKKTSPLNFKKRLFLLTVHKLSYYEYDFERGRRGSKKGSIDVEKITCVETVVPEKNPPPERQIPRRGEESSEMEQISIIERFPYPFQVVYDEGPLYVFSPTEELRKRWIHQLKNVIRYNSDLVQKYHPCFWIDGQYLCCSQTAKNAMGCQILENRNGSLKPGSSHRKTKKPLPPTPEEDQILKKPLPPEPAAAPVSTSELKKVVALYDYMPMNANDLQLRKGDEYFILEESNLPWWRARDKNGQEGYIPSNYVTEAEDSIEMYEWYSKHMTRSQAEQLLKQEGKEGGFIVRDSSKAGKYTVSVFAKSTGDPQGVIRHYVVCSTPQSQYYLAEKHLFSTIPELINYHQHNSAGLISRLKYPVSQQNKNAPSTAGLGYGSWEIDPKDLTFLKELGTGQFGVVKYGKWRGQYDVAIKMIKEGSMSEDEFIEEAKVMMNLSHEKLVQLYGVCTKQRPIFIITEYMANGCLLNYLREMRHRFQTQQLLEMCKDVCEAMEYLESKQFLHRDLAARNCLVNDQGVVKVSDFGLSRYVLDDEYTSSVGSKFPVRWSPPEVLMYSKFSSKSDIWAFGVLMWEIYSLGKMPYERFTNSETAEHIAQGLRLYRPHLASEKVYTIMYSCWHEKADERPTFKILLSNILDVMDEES
For a further assay, the system named is Mino cells. Kind of assay: Antiproliferative effect, MTS cell viability assay, Mino cells. Type of assay: cell-based. The note with it: Mino mantle cell lymphoma cells, read-out: IC50 (anti-proliferation) Mino cells. The gist of the method:
as §1

The mark [1] stands for this setting: read-out: DC50 (BTK degradation), concentration giving 50% reduction of BTK expression level.
The mark [2] stands for this setting: read-out: Dmax (BTK degradation).

Where two headings read alike, the source gives them in different places. Where only a bound is given, the exact number is not on record here.

15 molecules from US12139492B2 (Endotarget Inc., priority 2021, dated 2024) can be followed below.

For `Nc1ncnc2c1c(-c1ccc(Oc3ccccc3)cc1)nn2C1CCN(C2CCN(CC3CCN(c4ccc5c(c4)C(=O)N(C4CCC(=O)NC4=O)C5=O)CC3)CC2)CC1` (stereo in doubt) [Compound 213b, (S)-5-(4-((4-(4-amino-3-(4-phenoxyphenyl)-1H-pyrazolo[3,4-d]pyrimidin-1-yl)-[1,4′-bipiperidin]-1′-yl)methyl)piperidin-1-yl)-2-(2,6-dioxopiperidin-3-yl)isoindoline-1,3-dione], the IC50 in the assay with JeKo-1 cells and in the assay on Mino cells was less than 1000 nM in each case. The molecule also registered a DC50 at BTK (BTK degradation) of less than 10 nM.
`NC(=O)c1c(-c2ccc(Oc3ccccc3)cc2)nn2c1NCCC2C1CCN(C(=O)N2CCC(CN3CCC(c4ccc5c(c4)CN(C4CCC(=O)NC4=O)C5=O)CC3)CC2)CC1` (stereo not drawn) [Compound 280, 7-(1-(4-((4-(2-(2,6-dioxopiperidin-3-yl)-1-oxoisoindolin-5-yl)piperidin-1-yl)methyl)piperidine-1-carbonyl)piperidin-4-yl)-2-(4-phenoxyphenyl)-4,5,6,7-tetrahydropyrazolo[1,5-a]pyrimidine-3-carboxamide]: the IC50 with JeKo-1 cells (Homo sapiens) fell in the range of 1000 to 10000 nM; in the assay with Mino cells (Homo sapiens, MINO) it was 1000 to 10000 nM. This molecule returned a maximal degradation (Dmax) at BTK greater than 90%. For the same molecule, the DC50 on BTK (BTK degradation) was less than 10 nM.
On to `Nc1ncnc2c1c(-c1ccc(Oc3ccccc3)cc1)nn2C1CCN(C2CCN(C(=O)N3CCN(CCCN4CCN(c5ccc6c(c5)CN(C5CCC(=O)NC5=O)C6=O)CC4)CC3)CC2)CC1` (stereo not drawn) [Compound 258, 3-(5-(4-(3-(4-(4-(4-amino-3-(4-phenoxyphenyl)-1H-pyrazolo[3,4-d]pyrimidin-1-yl)-[1,4′-bipiperidine]-1′-carbonyl)piperazin-1-yl)propyl)piperazin-1-yl)-1-oxoisoindolin-2-yl)piperidine-2,6-dione], for which the IC50 was greater than 10000 nM in the assay with JeKo-1 cells (Homo sapiens) and 1000 to 10000 nM with Mino cells (Homo sapiens, MINO). At BTK, this molecule displayed a Dmax greater than 75%. In addition, on BTK (BTK degradation), the DC50 is 10 to 50 nM.
Regarding `Nc1ncnc2c1c(-c1ccc(Oc3ccccc3)cc1)nn2C1CCN(CC2CCN(CC3CCN(c4ccc(N5CCC(=O)NC5=O)cc4)CC3)C2)CC1` (stereo not drawn) [Compound 547, 1-(4-(4-((3-((4-(4-amino-3-(4-phenoxyphenyl)-1H-pyrazolo[3,4-d]pyrimidin-1-yl)piperidin-1-yl)methyl)pyrrolidin-1-yl)methyl)piperidin-1-yl)phenyl)dihydropyrimidine-2,4(1H,3H)-dione], the IC50 was in the range of 1000 to 10000 nM with JeKo-1 cells (Homo sapiens) and 1000 to 10000 nM in the assay with Mino cells (Homo sapiens, MINO). For the same molecule, the DC50 on BTK (setting [1]) is less than 10 nM. Also, on BTK (setting [2]), the Dmax was greater than 90%.
In the case of `NC(=O)c1c(-c2ccc(Oc3ccccc3)cc2)nn2c1NCCC2C1CCN(CC2CCN(C(=O)N3CCC(CN4CCN(c5ccc6c(c5)CN(C5CCC(=O)NC5=O)C6=O)CC4)CC3)CC2)CC1` (stereo not drawn) [Compound 370, 7-(1-((1-(4-((4-(2-(2,6-dioxopiperidin-3-yl)-1-oxoisoindolin-5-yl)piperazin-1-yl)methyl)piperidine-1-carbonyl)piperidin-4-yl)methyl)piperidin-4-yl)-2-(4-phenoxyphenyl)-4,5,6,7-tetrahydropyrazolo[1,5-a]pyrimidine-3-carboxamide], the IC50 in the assay on JeKo-1 cells (Homo sapiens) was less than 1000 nM; in the assay with Mino cells (Homo sapiens, MINO), less than 1000 nM. This molecule registered a Dmax at BTK greater than 90%. The molecule further showed a DC50 at BTK (BTK degradation) of less than 10 nM.
Take `Nc1ncnc2c1c(-c1ccc(Oc3ccccc3)cc1)nn2[C@@H]1CCCN(CCNC(=O)C2CCN(c3ccc4c(c3)C(=O)N(C3CCC(=O)NC3=O)C4=O)CC2)C1` (stereo partly drawn) [Compound 527, N-(2-((R)-3-(4-amino-3-(4-phenoxyphenyl)-1H-pyrazolo[3,4-d]pyrimidin-1-yl)piperidin-1-yl)ethyl)-1-(2-(2,6-dioxopiperidin-3-yl)-1,3-dioxoisoindolin-5-yl)piperidine-4-carboxamide]: the IC50 was 1000 to 10000 nM in the assay with JeKo-1 cells (Homo sapiens) and less than 1000 nM in the assay on Mino cells (Homo sapiens, MINO). Further, the DC50 on BTK (setting [1]) was in the range of 10 to 50 nM. Also, the Dmax at BTK (setting [2]) is greater than 75%.
In the same order, the values of `Nc1ncnc2c1c(-c1ccc(Oc3ccccc3)cc1)nn2[C@@H]1CCCN(C(=O)NCCN2CCN(c3ccc4c(c3)C(=O)N(C3CCC(=O)NC3=O)C4=O)CC2)C1` (stereo partly drawn) [Compound 524, (3R)-3-(4-amino-3-(4-phenoxyphenyl)-1H-pyrazolo[3,4-d]pyrimidin-1-yl)-N-(2-(4-(2-(2,6-dioxopiperidin-3-yl)-1,3-dioxoisoindolin-5-yl)piperazin-1-yl)ethyl)piperidine-1-carboxamide] are 1000 to 10000 nM, less than 1000 nM, less than 10 nM and greater than 90%.
In the case of `NC(=O)c1c(-c2ccc(Oc3ccccc3)cc2)nn2c1NCCC2C1CCN(CC2CCN(C(=O)N3CCC(N4CCN(c5ccc6c(c5)C(=O)N(C5CCC(=O)NC5=O)C6=O)CC4)CC3)CC2)CC1` (stereo not drawn) [Compound 363, 7-(1-((1-(4-(4-(2-(2,6-dioxopiperidin-3-yl)-1,3-dioxoisoindolin-5-yl)piperazin-1-yl)piperidine-1-carbonyl)piperidin-4-yl)methyl)piperidin-4-yl)-2-(4-phenoxyphenyl)-4,5,6,7-tetrahydropyrazolo[1,5-a]pyrimidine-3-carboxamide], the IC50 was 1000 to 10000 nM with JeKo-1 cells (Homo sapiens) and less than 1000 nM in the assay with Mino cells (Homo sapiens, MINO). Moreover, at BTK, the Dmax was greater than 90%. Besides, on BTK (BTK degradation), the half-maximal degradation concentration (DC50) lay in the range of 10 to 50 nM.
In the case of `NC(=O)c1c(-c2ccc(Oc3ccccc3)cc2)nn2c1NCC[C@H]2C1CCN(CC2CCN(C(=O)N3CCN(Cc4ccc5c(c4)CN(C4CCC(=O)NC4=O)C5=O)CC3)CC2)CC1` (stereo partly drawn) [Compound 400, (7S)-7-(1-((1-(4-((2-(2,6-dioxopiperidin-3-yl)-1-oxoisoindolin-5-yl)methyl)piperazine-1-carbonyl)piperidin-4-yl)methyl)piperidin-4-yl)-2-(4-phenoxyphenyl)-4,5,6,7-tetrahydropyrazolo[1,5-a]pyrimidine-3-carboxamide], the IC50 in the assay with JeKo-1 cells (Homo sapiens) was greater than 10000 nM; with Mino cells (Homo sapiens, MINO) it was greater than 10000 nM. In addition, at BTK (setting [1]), the DC50 is greater than 50 nM. Besides, the Dmax on BTK (setting [2]) was greater than 50%.
As to `Nc1ncnc2c1c(-c1ccc(Oc3ccccc3)cc1)nn2C1CCN(C2CCN(CCCN3CCN(c4ccc5c(c4)CN(C4CCC(=O)NC4=O)C5=O)CC3)CC2)CC1` (stereo not drawn) [Compound 222, 3-(5-(4-(3-(4-(4-amino-3-(4-phenoxyphenyl)-1H-pyrazolo[3,4-d]pyrimidin-1-yl)-[1,4′-bipiperidin]-1′-yl)propyl)piperazin-1-yl)-1-oxoisoindolin-2-yl)piperidine-2,6-dione], the IC50 in the assay on JeKo-1 cells (Homo sapiens) was in the range of 1000 to 10000 nM; with Mino cells (Homo sapiens, MINO), 1000 to 10000 nM. The molecule also displayed a Dmax on BTK greater than 90%. The same molecule had a DC50 on BTK (BTK degradation) of 10 to 50 nM.
For `Nc1ncnc2c1c(-c1ccc(Oc3ccccc3)cc1)nn2C1CCN(C[C@H]2CCN(CC3CCN(c4ccc5c(c4)C(=O)N(C4CCC(=O)NC4=O)C5=O)CC3)C2)CC1` (stereo partly drawn) [Compound 445a, 5-(4-(((R)-3-((4-(4-amino-3-(4-phenoxyphenyl)-1H-pyrazolo[3,4-d]pyrimidin-1-yl)piperidin-1-yl)methyl)pyrrolidin-1-yl)methyl)piperidin-1-yl)-2-(2,6-dioxopiperidin-3-yl)isoindoline-1,3-dione], the IC50 lay within 1000 to 10000 nM with JeKo-1 cells (Homo sapiens) and 1000 to 10000 nM in the assay on Mino cells (Homo sapiens, MINO). Moreover, the half-maximal degradation concentration (DC50) at BTK (setting [1]) was 10 to 50 nM. Further, at BTK (setting [2]), the Dmax is greater than 90%.
As to `NC(=O)c1c(-c2ccc(Oc3ccccc3)cc2)nn2c1NCC[C@H]2C1CCN(CC2CCN(C(=O)N3CCN(c4ccc5c(c4)CN(C4CCC(=O)NC4=O)C5=O)CC3)CC2)CC1` (stereo partly drawn) [Compound 398, (7S)-7-(1-((1-(4-(2-(2,6-dioxopiperidin-3-yl)-1-oxoisoindolin-5-yl)piperazine-1-carbonyl)piperidin-4-yl)methyl)piperidin-4-yl)-2-(4-phenoxyphenyl)-4,5,6,7-tetrahydropyrazolo[1,5-a]pyrimidine-3-carboxamide], the IC50 with JeKo-1 cells (Homo sapiens) is greater than 10000 nM; in the assay on Mino cells (Homo sapiens, MINO) it was greater than 10000 nM. Further, the DC50 on BTK (setting [1]) was greater than 50 nM. Moreover, the greatest degradation seen (Dmax) at BTK (setting [2]) is greater than 50%.
On to `NC(=O)c1c(-c2ccc(Oc3ccccc3)cc2)nn2c1NCC[C@H]2C1CCN(C(=O)N2CCN(CC3CCN(c4ccc5c(c4)CN(C4CCC(=O)NC4=O)C5=O)CC3)CC2)CC1` (stereo partly drawn) [Compound 290, (7S)-7-(1-(4-((1-(2-(2,6-dioxopiperidin-3-yl)-1-oxoisoindolin 5-yl)piperidin-4-yl)methyl)piperazine-1-carbonyl)piperidin-4-yl)-2-(4-phenoxyphenyl)-4,5,6,7-tetrahydropyrazolo[1,5-a]pyrimidine-3-carboxamide], for which the IC50 was less than 1000 nM with JeKo-1 cells (Homo sapiens) and 1000 to 10000 nM in the assay on Mino cells (Homo sapiens, MINO). In addition, on BTK, the Dmax was greater than 90%. Also, the DC50 on BTK (BTK degradation) is less than 10 nM.
In the same order, the values of `Nc1ncnc2c1c(-c1ccc(Oc3ccccc3)cc1)nn2C1CCN(C2CCN(C(=O)N3CCC(c4ccc5c(c4)C(=O)N(C4CCC(=O)NC4=O)C5=O)CC3)CC2)CC1` (stereo not drawn) [Compound 227, 5-(1-(4-(4-amino-3-(4-phenoxyphenyl)-1H-pyrazolo[3,4-d]pyrimidin-1-yl)-[1,4′-bipiperidine]-1′-carbonyl)piperidin-4-yl)-2-(2,6-dioxopiperidin-3-yl)isoindoline-1,3-dione] are greater than 10000 nM, greater than 10000 nM, greater than 50% and greater than 50 nM.
As to `Nc1ncnc2c1c(-c1ccc(Oc3ccccc3)cc1)nn2C1CCN(CC2CCN(CC3CCN(c4ccc5c(c4)C(=O)N(C4CCC(=O)NC4=O)C5=O)C3)C2)CC1` (stereo not drawn) [Compound 447, 5-(3-((3-((4-(4-amino-3-(4-phenoxyphenyl)-1H-pyrazolo(3,4-d)pyrimidin-1-yl)piperidin-1-yl)methyl)pyrrolidin-1-yl)methyl)pyrrolidin-1-yl)-2-(2,6-dioxopiperidin-3-yl)isoindoline-1,3-dione], the IC50 in the assay with JeKo-1 cells (Homo sapiens) lay within 1000 to 10000 nM; in the assay with Mino cells (Homo sapiens, MINO), 1000 to 10000 nM. Moreover, the “degradation of BTK protein” value at BTK (Namalwa B lymphocyte cells, various concentrations, 24 hours, Western blot) is “dose-dependent degradation”. For the same molecule, the DC50 on BTK (setting [1]) fell in the range of 10 to 50 nM. In addition, the maximal degradation (Dmax) at BTK (setting [2]) was greater than 90%.
